The results in this text go back to ChEMBL document CHEMBL1909046, “DrugMatrix in vitro pharmacology data”.

For the first assay, the target named is T1, Calcitonin receptor (Homo sapiens, UniProt P30988). Note: in other assays of this panel Not Active means under 50% inhibition at 10 µM.
T1 sequence (P30988 whole entry): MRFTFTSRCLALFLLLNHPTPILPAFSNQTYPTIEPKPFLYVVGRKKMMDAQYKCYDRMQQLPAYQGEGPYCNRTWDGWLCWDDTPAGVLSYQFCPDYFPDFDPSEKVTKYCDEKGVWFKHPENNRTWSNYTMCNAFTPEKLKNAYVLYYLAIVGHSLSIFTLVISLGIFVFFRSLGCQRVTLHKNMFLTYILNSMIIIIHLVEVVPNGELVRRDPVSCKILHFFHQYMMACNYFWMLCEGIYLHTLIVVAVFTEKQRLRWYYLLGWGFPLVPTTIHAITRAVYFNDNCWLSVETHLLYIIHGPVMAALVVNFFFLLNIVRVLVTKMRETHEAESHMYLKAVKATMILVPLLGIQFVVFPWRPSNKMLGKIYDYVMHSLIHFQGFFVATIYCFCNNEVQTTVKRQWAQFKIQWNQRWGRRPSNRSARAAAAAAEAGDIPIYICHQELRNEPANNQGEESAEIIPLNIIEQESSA
Assay: not given
Particulars: t47d. The class given is cell membranes, Membrane.
For `O=[N+]([O-])c1cc([As](=O)(O)O)ccc1O` [ROXARSONE], the IC50 result is on record as “Not Active” and the Ki result was “Not Active”.

Consider `Cc1ncc([N+](=O)[O-])n1CC(C)O` (configuration not stated) [SECNIDAZOLE], for which the IC50 entry is given as “Not Active”.

For `CC1=C(/C=C/C(C)=C/C=C/C(C)=C\C(=O)O)C(C)(C)CCC1` [ISOTRETINOIN], the IC50 result is listed as “Not Active”.

System in the next assay: not listed separately
Kind of assay: DRUGMATRIX: Sodium/nucleoside co-transporter radioligand binding (ligand: nitrobenzylthioinosine). Particulars: Not Active = under 50% inhibition at 10 µM. The class given is cell membranes, Cavia porcellus, Dunkin-Hartley, Cerebral cortex, Membrane.
Consider `O=[N+]([O-])c1cc([As](=O)(O)O)ccc1O` [ROXARSONE], for which the IC50 entry is “Not Active” and the Ki entry is on record as “Not Active”.

For the compound `Cc1ncc([N+](=O)[O-])n1CC(C)O` (configuration not stated) [SECNIDAZOLE], the IC50 entry is on record as “Not Active” and the Ki entry is reported as “Not Active”.

Turning to `CC1=C(/C=C/C(C)=C/C=C/C(C)=C\C(=O)O)C(C)(C)CCC1` [ISOTRETINOIN], the IC50 result is listed as “Not Active” and the Ki entry was “Not Active”.

The next assay concerns the target Protein kinase C alpha type (Homo sapiens, UniProt P17252).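 Note: inhibition of PKCalpha kinase activity measured in an enzyme assay with histone as the phosphorylation substrate; in other assays of this panel Not Active means under 50% inhibition at 10 µM.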
Assay: not given
Particulars: sf9. In kind it is cell-based.
Turning to `O=[N+]([O-])c1cc([As](=O)(O)O)ccc1O` [ROXARSONE], the IC50 entry is on record as “Not Active” and the Ki entry was “Not Active”.

`Cc1ncc([N+](=O)[O-])n1CC(C)O` (configuration not stated) [SECNIDAZOLE]: the IC50 entry is given as “Not Active”.

Regarding `CC1=C(/C=C/C(C)=C/C=C/C(C)=C\C(=O)O)C(C)(C)CCC1` [ISOTRETINOIN], the IC50 result was “Not Active”.

The target of the next assay is Epidermal growth factor receptor (Homo sapiens, UniProt P00533). Put plainly: DRUGMATRIX: Protein Tyrosine Kinase, EGF Receptor enzyme inhibition (substrate: Poly(Glu:Tyr)). The class given is cell-based, Insect cells. To be noted: insect cells; Not Active = under 50% inhibition at 10 µM.
Epidermal growth factor receptor, sequence (P00533 whole entry): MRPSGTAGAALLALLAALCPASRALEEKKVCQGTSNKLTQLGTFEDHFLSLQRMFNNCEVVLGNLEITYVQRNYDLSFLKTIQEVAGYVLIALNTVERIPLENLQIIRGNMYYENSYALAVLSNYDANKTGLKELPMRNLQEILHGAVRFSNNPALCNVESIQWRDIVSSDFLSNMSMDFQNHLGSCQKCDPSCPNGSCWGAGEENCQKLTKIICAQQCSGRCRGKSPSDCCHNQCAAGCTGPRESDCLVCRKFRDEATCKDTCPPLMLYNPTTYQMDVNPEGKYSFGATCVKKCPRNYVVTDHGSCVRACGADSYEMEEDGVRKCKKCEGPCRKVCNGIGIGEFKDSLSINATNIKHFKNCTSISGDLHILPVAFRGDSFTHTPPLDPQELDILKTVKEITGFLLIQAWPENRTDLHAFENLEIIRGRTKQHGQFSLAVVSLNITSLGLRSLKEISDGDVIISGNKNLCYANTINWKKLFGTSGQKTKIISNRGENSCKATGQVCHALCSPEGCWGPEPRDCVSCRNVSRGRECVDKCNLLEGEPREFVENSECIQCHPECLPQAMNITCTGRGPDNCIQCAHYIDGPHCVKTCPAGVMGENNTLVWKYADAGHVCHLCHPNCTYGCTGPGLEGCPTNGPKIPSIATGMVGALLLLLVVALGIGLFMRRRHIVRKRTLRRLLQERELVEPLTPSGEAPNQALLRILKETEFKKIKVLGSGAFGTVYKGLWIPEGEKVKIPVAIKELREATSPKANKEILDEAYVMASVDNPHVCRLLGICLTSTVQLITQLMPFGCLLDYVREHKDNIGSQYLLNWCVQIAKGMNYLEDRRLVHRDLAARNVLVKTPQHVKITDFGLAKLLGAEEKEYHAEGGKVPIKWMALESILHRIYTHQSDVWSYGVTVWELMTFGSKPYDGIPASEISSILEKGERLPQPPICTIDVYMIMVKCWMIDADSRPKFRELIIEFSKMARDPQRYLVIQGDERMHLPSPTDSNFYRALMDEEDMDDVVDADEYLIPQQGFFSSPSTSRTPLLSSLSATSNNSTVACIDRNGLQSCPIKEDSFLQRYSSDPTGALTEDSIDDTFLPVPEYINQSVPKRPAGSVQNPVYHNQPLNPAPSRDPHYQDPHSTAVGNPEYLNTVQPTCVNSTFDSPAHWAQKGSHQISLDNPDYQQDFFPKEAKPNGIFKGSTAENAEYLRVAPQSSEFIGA
Consider `O=[N+]([O-])c1cc([As](=O)(O)O)ccc1O` [ROXARSONE], for which the IC50 result is on record as “Not Active” and the Ki result is given as “Not Active”.

Turning to `Cc1ncc([N+](=O)[O-])n1CC(C)O` (configuration not stated) [SECNIDAZOLE], the IC50 result is “Not Active”.

In the case of `CC1=C(/C=C/C(C)=C/C=C/C(C)=C\C(=O)O)C(C)(C)CCC1` [ISOTRETINOIN], the IC50 result is recorded as “Not Active”.

The target of a further assay is T2, Alpha-1A adrenergic receptor (Rattus norvegicus, UniProt P43140).
T2 sequence (P43140 whole entry): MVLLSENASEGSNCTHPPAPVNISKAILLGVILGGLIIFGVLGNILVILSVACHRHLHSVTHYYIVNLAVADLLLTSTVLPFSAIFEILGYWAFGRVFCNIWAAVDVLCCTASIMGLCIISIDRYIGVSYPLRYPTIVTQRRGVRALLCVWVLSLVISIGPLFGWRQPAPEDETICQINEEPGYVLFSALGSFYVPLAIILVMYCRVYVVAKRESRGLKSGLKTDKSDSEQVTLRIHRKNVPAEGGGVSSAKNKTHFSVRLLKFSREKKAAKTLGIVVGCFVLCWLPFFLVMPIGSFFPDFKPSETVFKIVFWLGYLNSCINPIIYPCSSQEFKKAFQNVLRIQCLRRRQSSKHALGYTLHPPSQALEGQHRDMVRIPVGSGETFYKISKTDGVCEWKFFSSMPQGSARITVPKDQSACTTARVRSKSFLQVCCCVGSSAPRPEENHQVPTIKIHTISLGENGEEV
Kind of assay: DRUGMATRIX: Alpha-1A adrenergic receptor radioligand binding (ligand: prazosin). In kind it is cell membranes, Wistar, Submaxillary gland, Membrane. To be noted: Not Active = under 50% inhibition at 10 µM.
Consider `O=[N+]([O-])c1cc([As](=O)(O)O)ccc1O` [ROXARSONE], for which the IC50 entry was “Not Active” and the Ki entry is “Not Active”.

As for `Cc1ncc([N+](=O)[O-])n1CC(C)O` (configuration not stated) [SECNIDAZOLE], the IC50 result was “Not Active”.

Consider `CC1=C(/C=C/C(C)=C/C=C/C(C)=C\C(=O)O)C(C)(C)CCC1` [ISOTRETINOIN], for which the IC50 result is listed as “Not Active”.

System in the next assay: not listed separately
Put plainly: DRUGMATRIX: Phosphodiesterase PDE4 enzyme inhibition (substrate: [3H]cAMP + cAMP). Particulars: u-937; Not Active = under 50% inhibition at 10 µM.
For `O=[N+]([O-])c1cc([As](=O)(O)O)ccc1O` [ROXARSONE], the IC50 entry is on record as “Not Active” and the Ki entry was “Not Active”.

Regarding `Cc1ncc([N+](=O)[O-])n1CC(C)O` (configuration not stated) [SECNIDAZOLE], the IC50 result is given as “Not Active” and the Ki result is “Not Active”.

Take `CC1=C(/C=C/C(C)=C/C=C/C(C)=C\C(=O)O)C(C)(C)CCC1` [ISOTRETINOIN]: the IC50 entry is given as “Not Active” and the Ki result was “Not Active”.

A further assay deals with Beta-3 adrenergic receptor (Homo sapiens, UniProt P13945). Kind of assay: DRUGMATRIX: Adrenergic beta3 radioligand binding (ligand: [125I] Cyanopindolol). In kind it is cell membranes, HEK293, Membrane. To be noted: hek293; Not Active = under 50% inhibition at 10 µM.
Beta-3 adrenergic receptor, sequence (P13945 whole entry): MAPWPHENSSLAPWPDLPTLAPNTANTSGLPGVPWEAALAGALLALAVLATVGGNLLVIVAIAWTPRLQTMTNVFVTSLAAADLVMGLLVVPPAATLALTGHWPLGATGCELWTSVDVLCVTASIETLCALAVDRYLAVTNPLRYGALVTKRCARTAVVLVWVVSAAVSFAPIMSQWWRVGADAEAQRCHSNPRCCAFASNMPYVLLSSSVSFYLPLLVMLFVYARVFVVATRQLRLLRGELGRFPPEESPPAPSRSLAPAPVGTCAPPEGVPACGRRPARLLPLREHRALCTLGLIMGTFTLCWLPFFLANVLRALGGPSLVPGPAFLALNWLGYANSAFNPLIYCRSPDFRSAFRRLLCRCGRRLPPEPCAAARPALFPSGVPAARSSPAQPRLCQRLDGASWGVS
Consider `O=[N+]([O-])c1cc([As](=O)(O)O)ccc1O` [ROXARSONE], for which the IC50 entry is “Not Active” and the Ki entry is “Not Active”.

In the case of `Cc1ncc([N+](=O)[O-])n1CC(C)O` (configuration not stated) [SECNIDAZOLE], the IC50 result was “Not Active”.

In the case of `CC1=C(/C=C/C(C)=C/C=C/C(C)=C\C(=O)O)C(C)(C)CCC1` [ISOTRETINOIN], the IC50 result is “Not Active”.

The next assay addresses T3, Alpha-1D adrenergic receptor (Homo sapiens, UniProt P25100).
T3 sequence (P25100 whole entry): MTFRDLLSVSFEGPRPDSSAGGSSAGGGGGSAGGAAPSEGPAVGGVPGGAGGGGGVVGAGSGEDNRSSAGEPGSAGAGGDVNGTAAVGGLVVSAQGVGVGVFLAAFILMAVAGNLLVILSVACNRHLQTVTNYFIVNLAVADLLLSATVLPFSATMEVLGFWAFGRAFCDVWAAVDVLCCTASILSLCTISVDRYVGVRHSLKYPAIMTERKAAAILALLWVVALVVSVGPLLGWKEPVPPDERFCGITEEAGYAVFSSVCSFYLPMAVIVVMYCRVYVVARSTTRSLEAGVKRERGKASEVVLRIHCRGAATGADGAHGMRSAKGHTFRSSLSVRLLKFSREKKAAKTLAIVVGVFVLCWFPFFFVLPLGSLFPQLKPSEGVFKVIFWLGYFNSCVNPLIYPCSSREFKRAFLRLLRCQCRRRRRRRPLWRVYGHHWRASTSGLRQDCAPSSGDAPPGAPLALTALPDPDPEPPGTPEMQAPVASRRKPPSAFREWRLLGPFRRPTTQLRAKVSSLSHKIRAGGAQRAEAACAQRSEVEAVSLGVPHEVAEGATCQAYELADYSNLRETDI
Assay: not given
Particulars: hek293. The class given is cell membranes, HEK293, Membrane.
Regarding `O=[N+]([O-])c1cc([As](=O)(O)O)ccc1O` [ROXARSONE], the IC50 result was “Not Active” and the Ki result is recorded as “Not Active”.

Turning to `Cc1ncc([N+](=O)[O-])n1CC(C)O` (configuration not stated) [SECNIDAZOLE], the IC50 result is listed as “Not Active”.

For the compound `CC1=C(/C=C/C(C)=C/C=C/C(C)=C\C(=O)O)C(C)(C)CCC1` [ISOTRETINOIN], the IC50 result is “Not Active”.

The next assay deals with T4, D(4) dopamine receptor (Homo sapiens, UniProt P21917).
T4 sequence (P21917 whole entry): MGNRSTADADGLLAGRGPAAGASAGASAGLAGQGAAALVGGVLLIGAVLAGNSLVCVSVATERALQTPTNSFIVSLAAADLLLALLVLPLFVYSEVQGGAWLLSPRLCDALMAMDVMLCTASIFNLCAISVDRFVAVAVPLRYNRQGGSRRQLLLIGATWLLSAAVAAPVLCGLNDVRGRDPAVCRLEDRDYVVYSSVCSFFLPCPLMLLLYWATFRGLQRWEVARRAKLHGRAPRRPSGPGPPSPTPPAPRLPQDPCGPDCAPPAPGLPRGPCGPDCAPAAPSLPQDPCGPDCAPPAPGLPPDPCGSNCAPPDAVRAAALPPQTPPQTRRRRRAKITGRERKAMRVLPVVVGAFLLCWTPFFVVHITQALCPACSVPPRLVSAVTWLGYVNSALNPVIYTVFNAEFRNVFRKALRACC
Put plainly: DRUGMATRIX: Dopamine D4.2 radioligand binding (ligand: [3H] Spiperone). The class given is cell membranes, CHO-K1, Membrane. Particulars: cho-k1; Not Active = under 50% inhibition at 10 µM.
Turning to `O=[N+]([O-])c1cc([As](=O)(O)O)ccc1O` [ROXARSONE], the IC50 entry was “Not Active” and the Ki entry is given as “Not Active”.

In the case of `Cc1ncc([N+](=O)[O-])n1CC(C)O` (configuration not stated) [SECNIDAZOLE], the IC50 result is “Not Active”.

In the case of `CC1=C(/C=C/C(C)=C/C=C/C(C)=C\C(=O)O)C(C)(C)CCC1` [ISOTRETINOIN], the IC50 result was “Not Active”.

In a further assay the target is T5, Cathepsin G (Homo sapiens, UniProt P08311).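 Note: inhibition of Cathepsin G enzyme activity, tested on an AMC-conjugated peptide substrate; in other assays of this panel Not Active means under 50% inhibition at 10 µM.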
T5 sequence (P08311 whole entry): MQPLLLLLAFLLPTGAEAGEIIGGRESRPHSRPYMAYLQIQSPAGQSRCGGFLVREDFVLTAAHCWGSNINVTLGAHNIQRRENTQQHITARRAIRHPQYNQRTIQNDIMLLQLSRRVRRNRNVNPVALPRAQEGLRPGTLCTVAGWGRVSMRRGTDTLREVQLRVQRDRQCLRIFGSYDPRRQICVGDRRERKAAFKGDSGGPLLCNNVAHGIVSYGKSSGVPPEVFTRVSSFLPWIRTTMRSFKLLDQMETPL
Assay: not given
In kind it is tissue-based. To be noted: neutrophil.
With `O=[N+]([O-])c1cc([As](=O)(O)O)ccc1O` [ROXARSONE], the IC50 result was “Not Active” and the Ki entry is on record as “Not Active”.

Regarding `Cc1ncc([N+](=O)[O-])n1CC(C)O` (configuration not stated) [SECNIDAZOLE], the IC50 entry was “Not Active”.

In the case of `CC1=C(/C=C/C(C)=C/C=C/C(C)=C\C(=O)O)C(C)(C)CCC1` [ISOTRETINOIN], the IC50 entry was “Not Active”.

The target in another assay is Glycine receptor (Rattus norvegicus, UniProt P22771+P24524+P07727+P20781). Note: in other assays of this panel Not Active means under 50% inhibition at 10 µM.
Assay: not given
Conditions: not given
In kind it is cell membranes, Wistar, Spinal cord, Membrane.
Turning to `O=[N+]([O-])c1cc([As](=O)(O)O)ccc1O` [ROXARSONE], the IC50 entry is on record as “Not Active” and the Ki entry is “Not Active”.

Turning to `Cc1ncc([N+](=O)[O-])n1CC(C)O` (configuration not stated) [SECNIDAZOLE], the IC50 entry is recorded as “Not Active”.

For the compound `CC1=C(/C=C/C(C)=C/C=C/C(C)=C\C(=O)O)C(C)(C)CCC1` [ISOTRETINOIN], the IC50 result is listed as “Not Active”.

The target in the next assay is Prostaglandin G/H synthase 1 (Homo sapiens, UniProt P23219). Kind of assay: biochemical. The class given is tissue-based, Platelet. Particulars: platelet.
Prostaglandin G/H synthase 1, sequence (P23219 whole entry): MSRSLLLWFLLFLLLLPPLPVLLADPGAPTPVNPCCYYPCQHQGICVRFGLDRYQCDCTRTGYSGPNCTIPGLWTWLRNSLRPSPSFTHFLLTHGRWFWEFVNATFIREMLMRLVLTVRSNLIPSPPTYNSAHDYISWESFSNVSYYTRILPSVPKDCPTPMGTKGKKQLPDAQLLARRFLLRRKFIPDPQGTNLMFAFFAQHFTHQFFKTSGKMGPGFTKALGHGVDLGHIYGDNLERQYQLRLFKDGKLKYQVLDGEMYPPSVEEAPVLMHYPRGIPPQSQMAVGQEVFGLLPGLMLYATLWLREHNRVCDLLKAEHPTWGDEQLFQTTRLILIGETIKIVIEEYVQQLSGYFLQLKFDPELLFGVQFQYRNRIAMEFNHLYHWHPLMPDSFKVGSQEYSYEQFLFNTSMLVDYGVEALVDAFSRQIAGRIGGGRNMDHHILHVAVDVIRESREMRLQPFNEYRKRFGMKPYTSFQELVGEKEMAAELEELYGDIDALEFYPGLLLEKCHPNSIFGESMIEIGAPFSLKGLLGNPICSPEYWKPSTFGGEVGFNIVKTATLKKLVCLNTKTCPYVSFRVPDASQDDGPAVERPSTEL
As for `O=[N+]([O-])c1cc([As](=O)(O)O)ccc1O` [ROXARSONE], the IC50 entry is given as “Not Active” and the Ki entry is recorded as “Not Active”.

As for `Cc1ncc([N+](=O)[O-])n1CC(C)O` (configuration not stated) [SECNIDAZOLE], the IC50 entry was “Not Active”.

Regarding `CC1=C(/C=C/C(C)=C/C=C/C(C)=C\C(=O)O)C(C)(C)CCC1` [ISOTRETINOIN], the IC50 entry is “Not Active”.
